Measurements reported in paper PMC5745756, “N,N-disubstituted azines attenuate LPS-mediated neuroinflammation in microglia and neuronal apoptosis via inhibiting MAPK signaling pathways” (BMC Neuroscience, 2017).
Where two headings read alike, the source gives them in different places.

Tests used:
Format in all cases: cell-based, murine
[1] = MTT cell viability of LPS-activated BV-2 cells; conditions: mouse, LPS-activated BV-2 microglial cells; 20 µM compound; percentage of the LPS-only treatment group; mean ± standard deviation, three experiments
Protocol: (§1) […] or MTT assay was performed as described by our previous publication with slight modification. In order to measure MTT and NO production, BV-2 cells were plated into a 96-well plate at a density of 4 × 10^4 cells/well. […] Then, nitrite (a soluble oxidation product of NO) was detected in the culture media by using the Griess reaction. The supernatant (50 µL) was collected and mixed with an equal volume of Griess reagent (1% sulfanilamide in phosphoric acid and 0.1% N-1-napthylethylenediamine dihydrochloride). The absorbance was measured at 570 nm by using a microplate reader. Sodium nitrite was used to create a standard curve from which the NO2 concentration was calculated. The cell viability was evaluated by spectrophotometrically measuring the reduction of yellow 3-[4,5-dimethylthiazol-2-yl]-2,5-diphenyltetrazolium bromide (MTT) to purple formazan crystals. MTT was dissolved in DMEM, added to the culture plate containing cells at a final concentration of 0.5 mg/mL, and incubated for 1 h. The medium containing the MTT solution was carefully removed, and 200 µL DMSO was added to each well. After solubilizing the stained cells to produce a formazan-colored solution, the optical density (OD) was measured on a microplate reader at 570 nm, and the results were expressed as a percentage of the LPS-treated group. The same plate was used for the NO and MTT assays. The cell supernatant was used for the NO assay, and the plated cells were used for the MTT assay.
(§2) The NO production and cell viability of LPS-activated BV-2 cells were measured after treatment with azine derivatives using Griess reagent and MTT assay, respectively.

[2] = tested on: NO production in LPS-activated BV-2 cells; test: Nitrite (Griess) assay of NO production in LPS-activated BV-2 cells; conditions: Mus musculus, read-out: IC50, concentration that caused 50% inhibition of NO production in LPS-activated BV-2 cells
Protocol: as §1, §2

BV-2 cells = test: MTT cell viability of LPS-activated BV-2 cells
Protocol: as §1, §2

[3] = BV-2, 100 ng/mL LPS, 24 h, Griess reaction

Structure (SMILES)	IC50 [2, 3] [µM]	viability at 24 h, 20 µM [1] [%]	IC50 ([2]; BV-2, 24 h) [µM]	Toxicity in BV-2 cells (discussion) (BV-2 cells)
O=[N+]([O-])c1ccccc1/C=C/C=NN=C/C=C/c1ccccc1[N+](=O)[O-] [Compound 6, 1,2-Bis((E)-3-(2-nitrophenyl)allylidene)hydrazine]	–	87.9 ± 19.5	47.4	–
C(C=C(c1ccccc1)c1ccccc1)=NN=CC=C(c1ccccc1)c1ccccc1 [Compound 8, 1,2-Bis(3,3-diphenylallylidene)hydrazine]	47.9	69.5 ± 3.25	–	high toxicity
Clc1ccc(/C=C/C=NN=C/C=C/c2ccc(Cl)cc2)cc1 [Compound 7, 1,2-Bis((E)-3-(4-chlorophenyl)allylidene)hydrazine]	39.9	77.2 ± 5.67	–	high toxicity

More lines, main results first:

IC50 [2, 3] [µM]	Structure (SMILES)	viability at 24 h, 20 µM [1] [%]	IC50 ([2]; BV-2, 24 h) [µM]	Toxicity in BV-2 cells (discussion) (BV-2 cells)
26.3	C(=NN=Cc1ccc(N(c2ccccc2)c2ccccc2)cc1)c1ccc(N(c2ccccc2)c2ccccc2)cc1 [Compound 9, 4,4′-Hydrazine-1,2-diylidenebis(methan-1-yl-1-ylidene)bis(N,N-diphenylaniline)]	83.5 ± 7.78	–	–
18.3	[H]/N=C(/NC)NCCC[C@H](N)C(=O)O [L-NMMA, L-NG-monomethylarginine, reference compound]	100 ± 3.41	–	–
50.1	C/C(C=NN=C/C(C)=C/c1ccccc1)=C\c1ccccc1 [Compound 2, 1,2-Bis((E)-2-methyl-3-phenylallylidene)hydrazine]	96.6 ± 1.75	–	–
> 500	C(=NN=Cc1cnc2ccccc2c1)c1cnc2ccccc2c1 [Compound 4, 1,2-Bis(quinolin-3-ylmethylene)hydrazine]	91 ± 3.39	–	–
58.5	COc1ccc(/C=C/C=NN=C/C=C/c2ccc(OC)cc2)cc1 [Compound 1, 1,2-Bis((E)-3-(4-methoxyphenyl)allylidene)hydrazine]	90.3 ± 9.37	–	–
